System: Mouse Embryonic Fibroblasts, MEFs
Test: Cell cycle progression by propidium iodide flow cytometry, normal (primary) cells
Format: cell-based
Details: 100 µM, 23hrs, compared to DMSO control (Fig. 5D vs 5C)
Procedure: Since the proteins Geminin and Cdtl are key regulators of the cell cycle, the effect of the synthetic compound on the development of the cancer cell and normal cell cycle was studied. Staining of the genetic material of the cells was performed with propidium iodide and the technique of flow cytometry was applied for their separation, based on the amount of genetic material.
MCF7 cells were used as cancer cells, whereas primary cells and particularly embryonic mouse fibroblasts (Mouse Embryonic Fibroblasts, MEFs) were used as normal cells. The cells were incubated with the synthetic chemical compound AF-615/30368009 at a concentration of 100 µM and cultured for 23hrs in 100-mm dishes, to 80% confluency. Cells which had been incubated with only DMSO were used as a negative control sample. The next day of the incubation, cells were harvested using trypsin. […] The experiments were conducted using a Becton Dickinson flow cytometer and the data were analyzed by the WinMDi software version 2.8. […]
The graphs shown in Fig. 5 are representative of at least two independent experiments. The x axis represents the intensity of the fluorescence of propidium iodide and proportionally the amount of DNA content of the cells, while the y-axis corresponds to the number of events for each phase of the cell cycle.

`O=C(NNC(=S)N1CCOCC1)c1cnccn1` [AF-615/30368009, N'-(morpholine-4-carbothioyl)pyrazine-2-carbohydrazide] was tested, and the “percentage of cells in G2/M phase” value was “mild reduction” and the “percentage of cells in phase G0/G1 and S” value was “no significant change”.

Reference: EP3463364B1, “PYRAZINE DERIVATIVES FOR USE IN THE TREATMENT OF DISEASES ASSOCIATED WITH CELL CYCLE DYSREGULATION” (University of Patras, priority 2016, dated 2017)
